From patent publication US20050004134A1, “Thiazole derivative and pharmaceutical use thereof” (priority 2001, published 2005)

| Structure (SMILES) | melting point |
| --- | --- |
| CCCNC(=O)c1nc(-c2ccccc2)c(-c2ccc(=O)n(CCC)n2)s1 [Example 172, 5-(6-oxo-1-propyl-1,6-dihydro-3-pyridazinyl)-4-phenyl-N-propyl-1,3-thiazole-2-carboxamide] | 121 to 122 °C |
| CCCNC(=O)c1nc(-c2ccccc2)c(-c2ccc(=O)n(C(C)C)n2)s1 [Example 173, 5-(1-isopropyl-6-oxo-1,6-dihydro-3-pyridazinyl)-4-phenyl-N-propyl-1,3-thiazole-2-carboxamide] | 141 to 142 °C |
| CCCNC(=O)c1nc(-c2ccccc2)c(-c2ccc(=O)n(Cc3ccccc3)n2)s1 [Example 174, 5-(1-benzyl-6-oxo-1,6-dihydro-3-pyridazinyl)-4-phenyl-N-propyl-1,3-thiazole-2-carboxamide] | 120 to 121 °C |
| CCCNC(=O)c1nc(-c2ccc(F)cc2)c(-c2ccc(=O)n(C(C)C)n2)s1 [Example 175, 4-(4-fluorophenyl)-5-(1-isopropyl-6-oxo-1,6-dihydro-3-pyridazinyl)-N-propyl-1,3-thiazole-2-carboxamide] | 146.5 to 147.5 °C |
| CC(C)NC(=O)c1nc(-c2ccccc2)c(-c2ccc(=O)[nH]n2)s1 [Example 176, N-isopropyl-5-(6-oxo-1,6-dihydro-3-pyridazinyl)-4-phenyl-1,3-thiazole-2-carboxamide] | > 250 °C |
| CC(C)NC(=O)c1nc(-c2ccccc2)c(-c2ccc(=O)n(Cc3ccccc3)n2)s1 [Example 182, 5-(1-benzyl-6-oxo-1,6-dihydro-3-pyridazinyl)-N-isopropyl-4-phenyl-1,3-thiazole-2-carboxamide] | 163.5 to 165 °C |
| CC(C)NC(=O)c1nc(-c2ccccc2F)c(-c2ccc(=O)n(C(C)C)n2)s1 [Example 184, 4-(2-fluorophenyl)-N-isopropyl-5-(1-isopropyl-6-oxo-1,6-dihydro-3-pyridazinyl)-1,3-thiazole-2-carboxamide] | 129 to 130.5 °C |
| CC(C)NC(=O)c1nc(-c2cccc(F)c2)c(-c2ccc(=O)n(C(C)C)n2)s1 [Example 185, 4-(3-fluorophenyl)-N-isopropyl-5-(1-isopropyl-6-oxo-1,6-dihydro-3-pyridazinyl)-1,3-thiazole-2-carboxamide] | 103.5 to 105.5 °C |

Now from value to compound:

| melting point | Structure (SMILES) |
| --- | --- |
| 154 to 154.5 °C | CC(C)NC(=O)c1nc(-c2ccccc2)c(-c2ccc(=O)n(C)n2)s1 [Example 177, N-isopropyl-5-(1-methyl-6-oxo-1,6-dihydro-3-pyridazinyl)-4-phenyl-1,3-thiazole-2-carboxamide] |
| 152.5 to 153 °C | CCn1nc(-c2sc(C(=O)NC(C)C)nc2-c2ccccc2)ccc1=O [Example 178, 5-(1-ethyl-6-oxo-1,6-dihydro-3-pyridazinyl)-N-isopropyl-4-phenyl-1,3-thiazole-2-carboxamide] |
| 146.5 to 147.5 °C | CCCn1nc(-c2sc(C(=O)NC(C)C)nc2-c2ccccc2)ccc1=O [Example 179, N-isopropyl-5-(6-oxo-1-propyl-1,6-dihydro-3-pyridazinyl)-4-phenyl-1,3-thiazole-2-carboxamide] |
| 131 to 132.5 °C | CC(C)NC(=O)c1nc(-c2ccccc2)c(-c2ccc(=O)n(C(C)C)n2)s1 [Example 180, N-isopropyl-5-(1-isopropyl-6-oxo-1,6-dihydro-3-pyridazinyl)-4-phenyl-1,3-thiazole-2-carboxamide] |
| 166 to 167 °C | C=CCn1nc(-c2sc(C(=O)NC(C)C)nc2-c2ccccc2)ccc1=O [Example 181, 5-(1-allyl-6-oxo-1,6-dihydro-3-pyridazinyl)-N-isopropyl-4-phenyl-1,3-thiazole-2-carboxamide] |
| 172 to 172.5 °C | COCCn1nc(-c2sc(C(=O)NC(C)C)nc2-c2ccccc2)ccc1=O [Example 183, N-isopropyl-5-[1-(2-methoxyethyl)-6-oxo-1,6-dihydro-3-pyridazinyl]-4-phenyl-1,3-thiazole-2-carboxamide] |
